According to article PMC6295246 (Clinical cancer research : an official journal of the …, 2018):

Assays:
[1] = Alisertib plasma pharmacokinetics; assay type: in vivo, human; conditions: pooled phase 1, phase 2 and OS cohorts
[2] = system: relapsed or refractory neuroblastoma; assay: Best objective response; assay type: in vivo, human; conditions: pooled Phase 1/2/OS
[3] = system: relapsed or refractory neuroblastoma; assay: Progression-free survival; assay type: in vivo, human; conditions: pooled Phase 1/2/OS
[4] = system: relapsed and refractory neuroblastoma; conditions: phase 1, with irinotecan and temozolomide; cited from earlier work
[5] = Alisertib Day 5 trough > median, N=21
[6] = Alisertib Day 5 trough ≤ median, N=21
[7] = Alisertib exposure > median, N=21
[8] = Alisertib exposure ≤ median, N=21

COc1cc(Nc2ncc3c(n2)-c2ccc(Cl)cc2C(c2c(F)cccc2OC)=NC3)ccc1C(=O)O [alisertib]
alisertib Day 5 trough in the first cycle, median [1]: 0.46 µM
Objective Response ([2]; > 2 Prior regimens, N=17): 24%
Objective Response ([2]; AURKA Codon 31 heterozygote, N=12): 25%
Objective Response ([2]; AURKA Codon 31 wild type, N=27): 19%
Objective Response ([2]; AURKA Codon 57 wild type, N=27): 19%
Objective Response ([2]; Age < 8 years, N=28): 18%
Objective Response ([2]; Age ≥ 4 years, N=47): 26%
Objective Response ([2]; Age ≥ 8 years, N=26): 27%
Objective Response ([2]; Alisertib Cmax > median, N=21): 19%
Objective Response ([2]; Alisertib Cmax ≤ median, N=21): 24%
Objective Response [2, 5]: 24%
Objective Response [2, 6]: 19%
Objective Response [2, 7]: 19%
Objective Response [2, 8]: 24%
Objective Response ([2]; Aurora A protein +, N=12): 17%
Objective Response ([2]; Aurora A protein −, N=18): 22%
Objective Response ([2]; Lin28B protein +, N=17): 12%
Objective Response ([2]; MYCN non-amplified, N=33): 27%
Objective Response ([2]; No prior irinotecan, N=36): 28%
Objective Response ([2]; No prior temozolomide, N=37): 27%
Objective Response ([2]; Prior temozolomide, N=17): 12%
Objective Response ([2]; UGT1A1 genotype 6 / 6, N=17): 35%
Objective Response ([2]; UGT1A1 genotype 6 / 7, N=17): 6%
Objective Response ([2]; UGT1A1 genotype 7 / 7, N=5): 20%
Objective Response ([2]; ≤ 2 Prior regimens, N=37): 22%
1-Yr PFS ([3]; > 2 Prior regimens, N=17): 32%
1-Yr PFS ([3]; AURKA Codon 31 wild type, N=27): 32%
1-Yr PFS ([3]; AURKA Codon 57 heterozygote, N=13): 43%
1-Yr PFS ([3]; Age ≥ 4 years, N=47): 42%
1-Yr PFS ([3]; Age ≥ 8 years, N=26): 47%
1-Yr PFS ([3]; Alisertib Cmax > median, N=21): 28%
1-Yr PFS ([3]; Alisertib Cmax ≤ median, N=21): 55%
1-Yr PFS [3, 5]: 45%
1-Yr PFS [3, 6]: 33%
1-Yr PFS [3, 7]: 41%
1-Yr PFS [3, 8]: 38%
1-Yr PFS ([3]; Lin 28B protein −, N=13): 34%
1-Yr PFS ([3]; MYCN amplified or Myc/Mycn +, N=18): 12%
1-Yr PFS ([3]; MYCN non-amplified, N=33): 47%
1-Yr PFS ([3]; No prior irinotecan, N=36): 43%
1-Yr PFS ([3]; No prior temozolomide, N=37): 41%
1-Yr PFS ([3]; Prior temozolomide, N=17): 32%
1-Yr PFS ([3]; UGT1A1 genotype 6 / 6, N=17): 57%
1-Yr PFS ([3]; UGT1A1 genotype 6 / 7, N=17): 26%
1-Yr PFS ([3]; UGT1A1 genotype 7 / 7, N=5): 40%
1-Yr PFS ([3]; ≤ 2 Prior regimens, N=37): 42%
estimated progression-free survival (PFS) rate at 2 years [4]: 52%
response rate [4]: 31.8%
